In the supplement of paper PMC10307832:

Key:
Experiment in all cases: relative viability (nuclei count vs DMSO), 5 days (fraction); higher = more cells survive
PC-14 = test system: PC-14
How it was run: (§1)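 Nuclei were stained with Hoechst during a one-step fixation (final 0.05% Triton X-100, 1% formaldehyde, 1 ug/ml Hoechst) carried out 5 days after dosing, then counted on 4× images. The cells, lung cancer lines in 1536-well plates, had been dosed by pin tool the day after seeding with one drug alone or a fixed anchor-drug dose plus five library-drug doses (not always all listed) in √10 steps. Relative viability is the nuclei count in treated wells divided by that in vehicle wells, and each value is the median of duplicate plates.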

NCI-H1915 = test system: NCI-H1915
How it was run: as §1

NCI-H647 = test system: NCI-H647
How it was run: as §1

NCI-H520 = test system: NCI-H520
How it was run: as §1

EPLC-272H = test system: EPLC-272H
How it was run: as §1

COR-L 105 = test system: COR-L 105
How it was run: as §1

H3255 = test system: H3255
How it was run: as §1

HCC-78 = test system: HCC-78
How it was run: as §1

LC-2-ad = test system: LC-2-ad
How it was run: as §1

201T = test system: 201T
How it was run: as §1

HCC-827 = test system: HCC-827
How it was run: as §1

NCI-H23 = test system: NCI-H23
How it was run: as §1

ChaGo-K-1 = test system: ChaGo-K-1
How it was run: as §1

NCI-H2405 = test system: NCI-H2405
How it was run: as §1

RERF-LC-KJ = test system: RERF-LC-KJ
How it was run: as §1

NCI-H2347 = test system: NCI-H2347
How it was run: as §1

NCI-H661 = test system: NCI-H661
How it was run: as §1

NCI-H2126 = test system: NCI-H2126
How it was run: as §1

LCLC-97TM1 = test system: LCLC-97TM1
How it was run: as §1

NCI-H650 = test system: NCI-H650
How it was run: as §1

NCI-H2087 = test system: NCI-H2087
How it was run: as §1

NCI-H1666 = test system: NCI-H1666
How it was run: as §1

O=c1cc(N2CCOCC2)oc2c(-c3cccc4c3sc3ccccc34)cccc12 + O=C(c1cc(Cc2n[nH]c(=O)c3ccccc23)ccc1F)N1CCN(C(=O)C2CC2)CC1 [Olaparib] (partner 8 µM)
relative viability (PC-14; first compound 0.01 µM): 0.285 | relative viability (PC-14; first compound 0.03162 µM): 0.21 | relative viability (PC-14; first compound 0.1 µM): 0.325 | relative viability (PC-14; first compound 0.3162 µM): 0.282 | relative viability (PC-14; first compound 1 µM): 0.269 | relative viability (NCI-H1915; first compound 0.01 µM): 0.258 | relative viability (NCI-H1915; first compound 0.03162 µM): 0.269 | relative viability (NCI-H1915; first compound 0.1 µM): 0.301 | relative viability (NCI-H1915; first compound 0.3162 µM): 0.26 | relative viability (NCI-H1915; first compound 1 µM): 0.262 | relative viability (NCI-H647; first compound 0.01 µM): 0.538 | relative viability (NCI-H647; first compound 0.03162 µM): 0.682 | relative viability (NCI-H647; first compound 0.1 µM): 0.524 | relative viability (NCI-H647; first compound 0.3162 µM): 0.655 | relative viability (NCI-H647; first compound 1 µM): 0.592 | relative viability (NCI-H520; first compound 0.01 µM): 0.42 | relative viability (NCI-H520; first compound 0.03162 µM): 0.406 | relative viability (NCI-H520; first compound 0.1 µM): 0.366 | relative viability (NCI-H520; first compound 0.3162 µM): 0.351 | relative viability (NCI-H520; first compound 1 µM): 0.338 | relative viability (EPLC-272H; first compound 0.01 µM): 0.761 | relative viability (EPLC-272H; first compound 0.03162 µM): 0.934 | relative viability (EPLC-272H; first compound 0.1 µM): 0.848 | relative viability (EPLC-272H; first compound 0.3162 µM): 0.776 | relative viability (EPLC-272H; first compound 1 µM): 0.824 | relative viability (COR-L 105; first compound 0.01 µM): 0.661 | relative viability (COR-L 105; first compound 0.03162 µM): 0.756 | relative viability (COR-L 105; first compound 0.1 µM): 0.687 | relative viability (COR-L 105; first compound 0.3162 µM): 0.694 | relative viability (COR-L 105; first compound 1 µM): 0.575 | relative viability (H3255; first compound 0.01 µM): 0.544 | relative viability (H3255; first compound 0.03162 µM): 0.517 | relative viability (H3255; first compound 0.1 µM): 0.567 | relative viability (H3255; first compound 0.3162 µM): 0.512 | relative viability (H3255; first compound 1 µM): 0.53 | relative viability (HCC-78; first compound 0.01 µM): 0.783 | relative viability (HCC-78; first compound 0.03162 µM): 0.687 | relative viability (HCC-78; first compound 0.1 µM): 0.644 | relative viability (HCC-78; first compound 0.3162 µM): 0.835 | relative viability (HCC-78; first compound 1 µM): 0.828 | relative viability (LC-2-ad; first compound 0.01 µM): 0.707 | relative viability (LC-2-ad; first compound 0.03162 µM): 0.694 | relative viability (LC-2-ad; first compound 0.1 µM): 0.77 | relative viability (LC-2-ad; first compound 0.3162 µM): 0.764 | relative viability (LC-2-ad; first compound 1 µM): 0.662 | relative viability (201T; first compound 0.01 µM): 0.817 | relative viability (201T; first compound 0.03162 µM): 0.842 | relative viability (201T; first compound 0.1 µM): 0.86 | relative viability (201T; first compound 0.3162 µM): 0.815 | relative viability (201T; first compound 1 µM): 0.866 | relative viability (HCC-827; first compound 0.01 µM): 0.695 | relative viability (HCC-827; first compound 0.03162 µM): 0.609 | relative viability (HCC-827; first compound 0.1 µM): 0.623 | relative viability (HCC-827; first compound 0.3162 µM): 0.641 | relative viability (HCC-827; first compound 1 µM): 0.642 | relative viability (NCI-H23; first compound 0.01 µM): 0.399 | relative viability (NCI-H23; first compound 0.03162 µM): 0.335 | relative viability (NCI-H23; first compound 0.3162 µM): 0.344 | relative viability (NCI-H23; first compound 1 µM): 0.343 | relative viability (ChaGo-K-1; first compound 0.01 µM): 0.421 | relative viability (ChaGo-K-1; first compound 0.03162 µM): 0.439 | relative viability (ChaGo-K-1; first compound 0.1 µM): 0.434 | relative viability (ChaGo-K-1; first compound 0.3162 µM): 0.447 | relative viability (ChaGo-K-1; first compound 1 µM): 0.447 | relative viability (NCI-H2405; first compound 0.01 µM): 0.952 | relative viability (NCI-H2405; first compound 0.03162 µM): 0.912 | relative viability (NCI-H2405; first compound 0.1 µM): 0.945 | relative viability (NCI-H2405; first compound 0.3162 µM): 0.832 | relative viability (NCI-H2405; first compound 1 µM): 0.93 | relative viability (RERF-LC-KJ; first compound 0.01 µM): 1.03 | relative viability (RERF-LC-KJ; first compound 0.03162 µM): 0.979 | relative viability (RERF-LC-KJ; first compound 0.1 µM): 0.965 | relative viability (RERF-LC-KJ; first compound 0.3162 µM): 0.703 | relative viability (RERF-LC-KJ; first compound 1 µM): 0.893 | relative viability (NCI-H2347; first compound 0.01 µM): 0.597 | relative viability (NCI-H2347; first compound 0.03162 µM): 0.541 | relative viability (NCI-H2347; first compound 0.1 µM): 0.553 | relative viability (NCI-H2347; first compound 0.3162 µM): 0.621 | relative viability (NCI-H2347; first compound 1 µM): 0.551 | relative viability (NCI-H661; first compound 0.01 µM): 0.744 | relative viability (NCI-H661; first compound 0.03162 µM): 0.725 | relative viability (NCI-H661; first compound 0.1 µM): 0.709 | relative viability (NCI-H661; first compound 0.3162 µM): 0.732 | relative viability (NCI-H661; first compound 1 µM): 0.721 | relative viability (NCI-H2126; first compound 0.01 µM): 0.887 | relative viability (NCI-H2126; first compound 0.03162 µM): 0.91 | relative viability (NCI-H2126; first compound 0.1 µM): 0.938 | relative viability (NCI-H2126; first compound 0.3162 µM): 0.899 | relative viability (NCI-H2126; first compound 1 µM): 0.918 | relative viability (LCLC-97TM1; first compound 0.01 µM): 0.316 | relative viability (LCLC-97TM1; first compound 0.03162 µM): 0.374 | relative viability (LCLC-97TM1; first compound 0.1 µM): 0.502 | relative viability (LCLC-97TM1; first compound 0.3162 µM): 0.269 | relative viability (LCLC-97TM1; first compound 1 µM): 0.432 | relative viability (NCI-H650; first compound 0.01 µM): 0.424 | relative viability (NCI-H650; first compound 0.03162 µM): 0.38 | relative viability (NCI-H650; first compound 0.3162 µM): 0.381 | relative viability (NCI-H650; first compound 1 µM): 0.4 | relative viability (NCI-H2087; first compound 0.01 µM): 0.544 | relative viability (NCI-H2087; first compound 0.03162 µM): 0.65 | relative viability (NCI-H2087; first compound 0.1 µM): 0.672 | relative viability (NCI-H2087; first compound 0.3162 µM): 0.552 | relative viability (NCI-H2087; first compound 1 µM): 0.587 | relative viability (NCI-H1666; first compound 0.01 µM): 0.753 | relative viability (NCI-H1666; first compound 0.03162 µM): 0.738 | relative viability (NCI-H1666; first compound 0.1 µM): 0.777 | relative viability (NCI-H1666; first compound 0.3162 µM): 0.684 | relative viability (NCI-H1666; first compound 1 µM): 0.692
